Reference: patent US11279687B2, “Compounds and compositions for the inhibition of NAMPT” (Valo Health, Inc., priority 2010, dated 2022)
Entries after “also recorded” stand apart in the source; their conditions may differ.

Key:
[1] = tested on: A2780 cells; assay: A2780 xenograft study in mice; format: in vivo, C.B-17-Igh-1b-Prkdc^scid mice; conditions: female SCID mice, s.c. A2780 tumors, p.o. BID for 5 or 10 days, dose selected from MTD study
Experimental: C.B-17-Igh-1b-Prkdc^scid mice (female) were injected s.c. with 5×10^6 A2780 cells (NCI) in the left flank. 10-12 days later when tumors reached 100-200 mm3 in size, mice were randomized into treatment groups of 8 mice per group including vehicle control and reference standard groups. The compounds were formulated in 60:30:10 PEG-400:D5W: Ethanol and administered p.o., at the dose volume of 10 ml/kg BID for a duration of 5 or 10 days. The dose used for efficacy was selected from the MTD (Maximum Tolerated Dose) study. Mice were weighed and tumors measured using vernier calipers every alternate day. Tumor volume was calculated according to the formula (length×width^2)/2. All animal work was approved by the Institutional Animal Care and Use Committee of Biological Resource Centre, Singapore.

[2] = molecular target: NAMPT (Homo sapiens (Human), UniProt P43490); assay: NAMPT biochemical inhibition assay (NMN quantified by mass spectrometry); conditions: NAMPT biochemical inhibition; read-out: Biochem IC50
[3] = tested on: A2780 cells; assay: In-vitro cell proliferation assay (SRB), A2780 cells; format: cell-based; conditions: Homo sapiens, A2780, 72 h, A2780 cells, 72 hours, SRB; read-out: A2780 IC50;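 further: viable cell number read as SRB absorbance, background from media-only wells subtracted, IC50 interpolated from percent inhibition at two bracketing compound concentrations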

Sequence of NAMPT (P43490 whole entry): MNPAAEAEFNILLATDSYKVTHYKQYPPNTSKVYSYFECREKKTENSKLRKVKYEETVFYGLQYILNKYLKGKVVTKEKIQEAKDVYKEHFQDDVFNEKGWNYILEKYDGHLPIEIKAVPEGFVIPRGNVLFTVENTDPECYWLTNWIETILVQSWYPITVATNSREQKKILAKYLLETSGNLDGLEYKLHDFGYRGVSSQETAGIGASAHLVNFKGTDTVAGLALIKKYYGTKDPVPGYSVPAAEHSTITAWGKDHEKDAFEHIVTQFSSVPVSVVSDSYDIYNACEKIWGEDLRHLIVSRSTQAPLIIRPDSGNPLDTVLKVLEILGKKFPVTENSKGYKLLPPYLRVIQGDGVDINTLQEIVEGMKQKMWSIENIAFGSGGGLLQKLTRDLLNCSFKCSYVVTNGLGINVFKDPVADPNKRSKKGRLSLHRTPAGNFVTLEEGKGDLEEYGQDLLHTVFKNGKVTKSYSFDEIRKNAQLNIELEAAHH

SMILES | effect on tumor growth in A2780 xenograft [1] | IC50 [2] [nM] | IC50 [3] [nM]
O=C(NCc1cccnc1)Nc1ccc(S(=O)(=O)N[C@H]2C[C@@H]3CC[C@H]2C3)cc1 [1-(4-{[(1S,2S,4R)-bicyclo[2.2.1]heptan-2-yl]sulfamoyl}phenyl)-3-(pyridin-3-ylmethyl)urea] | delayed tumor growth | 7 | 46
O=C(NCc1cccnc1)Nc1ccc(S(=O)(=O)c2ccccc2OC(F)(F)F)cc1 [1-(pyridin-3-ylmethyl)-3-(4-{[2-(trifluoromethoxy)benzene]sulfonyl}phenyl)urea] | tumor regression | 1 | 3
O=C(NCc1cccnc1)Nc1ccc(S(=O)(=O)N2CCC(N3CCOCC3)CC2)cc1 [1-{4-[4-(morpholin-4-yl)piperidine-1-sulfonyl]phenyl}-3-(pyridin-3-ylmethyl)urea] | delayed tumor growth | 9 | 13
C[C@@H]1CN(S(=O)(=O)c2ccc(NC(=O)NCc3ccc4nccn4c3)cc2)C[C@H](C)O1 [1-{4-[(2R,6S)-2,6-dimethylmorpholine-4-sulfonyl]phenyl}-3-{imidazo[1,2-a]pyridin-6-ylmethyl}urea] | delayed tumor growth | 8 | 25
O=C(NCc1ccc2nccn2c1)Nc1ccc(S(=O)(=O)c2ccc(F)cc2)cc1 [1-{4-[(4-fluorobenzene)sulfonyl]phenyl}-3-{imidazo[1,2-a]pyridin-6-ylmethyl}urea] | tumor stasis; also recorded: delayed tumor growth | 3 | 29
O=C(NCc1cccnc1)Nc1ccc(S(=O)(=O)Nc2cccc3ccccc23)cc1 [1-{4-[(naphthalen-1-yl)sulfamoyl]phenyl}-3-(pyridin-3-ylmethyl)urea] | delayed tumor growth | 1 | 19
COc1ccc(C(F)(F)F)cc1NS(=O)(=O)c1ccc(NC(=O)NCc2cccnc2)cc1 [3-(4-{[2-methoxy-5-(trifluoromethyl)phenyl]sulfamoyl}phenyl)-1-(pyridin-3-ylmethyl)urea] | delayed tumor growth | 0.1 | 2
Cc1ccc(Cl)c(NS(=O)(=O)c2ccc(NC(=O)NCc3cccnc3)cc2)c1 [3-{4-[(2-chloro-5-methylphenyl)sulfamoyl]phenyl}-1-(pyridin-3-ylmethyl)urea] | delayed tumor growth | 0.3 | 9
C[C@@H]1CN(S(=O)(=O)c2ccc(NC(=O)NCc3cccnc3)cc2)C[C@H](C)O1 [3-{4-[(2R,6S)-2,6-dimethylmorpholine-4-sulfonyl]phenyl}-1-(pyridin-3-ylmethyl)urea] | delayed tumor growth | – | 9
COc1cccc(NS(=O)(=O)c2ccc(NC(=O)NCc3cccnc3)cc2)c1C [3-{4-[(3-methoxy-2-methylphenyl)sulfamoyl]phenyl}-1-(pyridin-3-ylmethyl)urea] | delayed tumor growth | 2 | 57
COc1cc(Cl)c(C)cc1NS(=O)(=O)c1ccc(NC(=O)NCc2cccnc2)cc1 [3-{4-[(4-chloro-2-methoxy-5-methylphenyl)sulfamoyl]phenyl}-1-(pyridin-3-ylmethyl)urea] | tumor stasis | 1 | 6
O=C(NCc1cccnc1)Nc1ccc(S(=O)(=O)c2ccc(F)cc2)cc1 [3-{4-[(4-fluorobenzene)sulfonyl]phenyl}-1-(pyridin-3-ylmethyl)urea] | delayed tumor growth | 4 | 171
COc1ccc(Cl)cc1NS(=O)(=O)c1ccc(NC(=O)NCc2cccnc2)cc1 [3-{4-[(5-chloro-2-methoxyphenyl)sulfamoyl]phenyl}-1-(pyridin-3-ylmethyl)urea] | delayed tumor growth | 0.9 | 3
O=C(NCc1ccc2nccn2c1)Nc1ccc(S(=O)(=O)N2CCC(N3CCOCC3)CC2)cc1 [3-{imidazo[1,2-a]pyridin-6-ylmethyl}-1-{4-[4-(morpholin-4-yl)piperidine-1-sulfonyl]phenyl}urea] | delayed tumor growth | 4 | 5
